The record followed here is US7718666B2, “Pyrido [2,1-a] isoquinoline derivatives” (Hoffmann-La Roche Inc., priority 2003, dated 2010).

This test has as its target human DPP-IV (Homo sapiens, UniProt P27487). Put plainly: DPP-IV activity assay (fluorogenic / colorimetric), IC50 determination.

pIC50: −log10 of the molar value.

Sequence of human DPP-IV (P27487 31-766): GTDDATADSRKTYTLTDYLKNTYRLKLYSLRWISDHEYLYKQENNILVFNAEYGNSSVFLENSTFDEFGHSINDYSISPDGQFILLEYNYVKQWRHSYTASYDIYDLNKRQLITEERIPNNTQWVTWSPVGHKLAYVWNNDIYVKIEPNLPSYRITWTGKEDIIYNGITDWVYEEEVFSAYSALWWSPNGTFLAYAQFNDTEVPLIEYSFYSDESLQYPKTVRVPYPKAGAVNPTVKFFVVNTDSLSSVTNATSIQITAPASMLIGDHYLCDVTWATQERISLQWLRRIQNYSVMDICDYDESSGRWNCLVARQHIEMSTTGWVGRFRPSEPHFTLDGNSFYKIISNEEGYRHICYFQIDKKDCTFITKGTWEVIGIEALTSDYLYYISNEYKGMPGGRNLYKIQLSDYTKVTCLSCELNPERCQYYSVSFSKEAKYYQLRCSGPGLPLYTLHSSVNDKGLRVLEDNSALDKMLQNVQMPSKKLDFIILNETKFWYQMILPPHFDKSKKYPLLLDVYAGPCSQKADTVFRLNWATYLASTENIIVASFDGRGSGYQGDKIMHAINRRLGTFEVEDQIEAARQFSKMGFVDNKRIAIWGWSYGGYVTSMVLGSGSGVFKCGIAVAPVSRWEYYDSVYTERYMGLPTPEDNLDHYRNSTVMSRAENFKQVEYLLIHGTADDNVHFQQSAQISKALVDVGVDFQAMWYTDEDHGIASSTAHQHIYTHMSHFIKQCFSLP
Procedure: Activity of DPP-IV inhibitors are tested with natural human DPP-IV derived from a human plasma pool or with recombinant human DPP-IV. Human citrate plasma from different donors is pooled, filtered through a 0.2 micron membrane under sterile conditions and aliquots of 1 ml are shock frozen and stored at −120° C. until used. In the colorimetric DPP-IV assay 5 to 10 μl human plasma and in the fluorometric assay 1.0 μl of human plasma in a total assay volume of 100 μl is used as an enzyme source. […] Human DPP-IV is expressed and purified from the culture medium using conventional column chromatography including size exclusion and anion and cation chromatography. […] In the calorimetric DPP-IV assay 20 ng rec.-h DPP-IV and in the fluorometric assay 2 ng rec-h DPP-IV in a total assay volume of 100 μl is used as an enzyme source.
Initial rate constants are calculated by best fit linear regression.
The absorption of pNA liberated from the calorimetric substrate is detected in a Packard SpectraCount at 405 nm continuosly every 2 minutes for 30 to 120 minutes. Initial rate constants are calculated by best fit linear regression.
DPP-IV activity assays are performed in 96 well plates at 37° C. in a total assay volume of 100 μl. […]
Kinetic parameters of the enzyme reaction are calculated at least 5 different substrate concentrations and at least 5 different test compound concentrations.

By pIC50 is commonly meant the IC50 on a negative log10 scale, so that one unit is a factor of ten. High values mean a low IC50, low ones a high IC50. As to `COc1cc2c(cc1OC)[C@@H]1C[C@H](N)[C@@H](n3ccc(C)c3)CN1CC2` (racemic) [Example 33, rac-9,10-Dimethoxy-3β-(3-methyl-pyrrol-1-yl)-1,3,4,6,7,11bβ-hexahydro-2H-pyrido[2,1-a]isoquinolin-2α-ylamine], the pIC50 is 8.27. In the case of `COc1cc2c(cc1OC)[C@@H]1C[C@H](N)[C@@H](c3cc(C)ccn3)CN1CC2` [Example 9, 9,10-Dimethoxy-3(S)-(4-methyl-pyridin-2-yl)-1,3,4,6,7,11b(S)-hexahydro-2H-pyrido[2,1a]isoquinolin-2(S)-ylamine] it was 7.94.
